In patent US9765075B2, “Substituted bridged urea analogs as sirtuin modulators” (GLAXOSMITHKLINE LLC, priority 2013, dated 2017):
Where two headings read alike, the source gives them in different places.

Molecular target: T1, SIRT1 (Homo sapiens, UniProt Q96EB6)
T1 sequence (Q96EB6 1-747): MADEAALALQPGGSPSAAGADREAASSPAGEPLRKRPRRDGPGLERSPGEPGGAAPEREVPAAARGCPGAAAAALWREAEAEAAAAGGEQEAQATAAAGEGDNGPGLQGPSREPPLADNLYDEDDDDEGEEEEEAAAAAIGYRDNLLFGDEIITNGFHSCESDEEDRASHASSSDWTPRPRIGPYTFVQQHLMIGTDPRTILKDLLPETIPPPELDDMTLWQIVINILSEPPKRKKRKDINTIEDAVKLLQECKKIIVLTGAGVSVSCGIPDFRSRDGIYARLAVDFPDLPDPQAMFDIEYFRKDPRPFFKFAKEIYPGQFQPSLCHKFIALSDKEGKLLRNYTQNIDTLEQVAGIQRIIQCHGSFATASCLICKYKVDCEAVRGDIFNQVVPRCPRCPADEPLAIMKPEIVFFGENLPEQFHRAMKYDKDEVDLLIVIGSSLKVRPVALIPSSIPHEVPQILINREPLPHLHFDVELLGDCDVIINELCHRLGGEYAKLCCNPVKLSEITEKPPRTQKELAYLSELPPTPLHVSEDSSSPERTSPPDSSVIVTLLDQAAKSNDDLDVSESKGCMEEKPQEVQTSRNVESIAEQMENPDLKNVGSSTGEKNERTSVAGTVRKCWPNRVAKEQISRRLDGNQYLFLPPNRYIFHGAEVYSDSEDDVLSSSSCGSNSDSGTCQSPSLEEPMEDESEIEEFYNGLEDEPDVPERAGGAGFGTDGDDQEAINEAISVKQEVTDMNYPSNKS
Assay: Trp mass spectrometry assay (SIRT1 activation)
Type: biochemical
Conditions: for Emax: percent maximum fold activation of SIRT1, read-out: Tryp % Fold Act
Outline: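 Activation is expressed as EC1.5, the concentration raising activity 50% above DMSO control, and as maximum percent of control. Mass-spec readout was OAADPR or deacetylated Trp peptide after a formic-acid-quenched 25-min, 25 °C reaction: 10 nM bacterially expressed His-SIRT1, 0.5 μM acetyl-p53-derived peptide, 120 μM NAD+, pH 7.5 HEPES with […].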

[1] = concentration of test compound that results in 150% activation of SIRT1, Trp peptide substrate
[2] = Trp mass spectrometry assay, EC1.5 = concentration giving 150% activation of SIRT1

Tryp AVG EC1.5 (μM) [1] | Emax (Trp peptide substrate) [%] | Tryp AVG EC1.5 (μM) [2] | Emax (Trp mass spectrometry assay) [%] | Structure (SMILES)
B (EC1.5 1-25 μM) | ≥ 150 | – | – | CC(C)(C)OC(=O)N1CCc2ccc(NC(=O)N3c4nc(-c5cccc(C(F)(F)F)c5)ccc4N4CC[C@H]3C4)cc2C1 [Example 609]
B (EC1.5 1-25 μM) | ≥ 150 | – | – | CC(C)(C)OC(=O)N1CCCc2ccc(NC(=O)N3c4nc(-c5cccc(C(F)(F)F)c5)ccc4N4CC[C@H]3C4)cc21 [Example 610]
A (EC1.5<1 μM) | ≥ 150 | – | – | CC(C)(C)OC(=O)N1CCc2cc(NC(=O)N3c4nc(-c5cccc(C(F)(F)F)c5)ccc4N4CC[C@H]3C4)ccc2C1 [Example 611]
B (EC1.5 1-25 μM) | ≥ 150 | – | – | O=C(NCCCN1CCOCC1)N1c2nc(-c3cccc(C(F)(F)F)c3)ccc2N2CC[C@H]1C2 [Example 612]
B (EC1.5 1-25 μM) | ≥ 150 | – | – | O=C(NCCc1ccncc1)N1c2nc(-c3cccc(C(F)(F)F)c3)ccc2N2CC[C@H]1C2 [Example 613]
B (EC1.5 1-25 μM) | ≥ 150 | – | – | O=C(NCCc1ccccn1)N1c2nc(-c3cccc(C(F)(F)F)c3)ccc2N2CC[C@H]1C2 [Example 614]
B (EC1.5 1-25 μM) | ≥ 150 | – | – | O=C(NCCc1cccnc1)N1c2nc(-c3cccc(C(F)(F)F)c3)ccc2N2CC[C@H]1C2 [Example 615]
B (EC1.5 1-25 μM) | ≥ 150 | – | – | O=C(NCCN1CCOCC1)N1c2nc(-c3cccc(C(F)(F)F)c3)ccc2N2CC[C@H]1C2 [Example 616]
A (EC1.5<1 μM) | ≥ 150 | – | – | O=C(Nc1cccc(C(F)(F)F)c1)N1c2nc(-c3cccc(C(F)(F)F)c3)ccc2N2CC[C@H]1C2 [Example 617]
B (EC1.5 1-25 μM) | ≥ 150 | – | – | O=C(Nc1cccc(-c2ccc(C(F)(F)F)cn2)c1)N1c2nc(-c3cccc(C(F)(F)F)c3)ccc2N2CC[C@H]1C2 [Example 618]
C (EC1.5>25 μM) | < 150 | – | – | Cc1ccc(-c2cccc(NC(=O)N3c4nc(-c5cccc(C(F)(F)F)c5)ccc4N4CC[C@H]3C4)c2)cc1C [Example 619]
B (EC1.5 1-25 μM) | ≥ 150 | – | – | O=C1CN2C[C@H]1N(C(=O)Nc1ccccn1)c1nc(-c3cccc(C(F)(F)F)c3)ccc12 [Example 620]
A (EC1.5<1 μM) | ≥ 150 | – | – | Cn1nccc1-c1cccc(NC(=O)N2c3nc(-c4cccc(C(F)(F)F)c4)ccc3N3CC[C@H]2C3)n1 [Example 623]
B (EC1.5 1-25 μM) | ≥ 150 | – | – | O=C(Nc1ccc2c(c1)CCC2)N1c2nc(-c3cccc(C(F)(F)F)c3)ccc2N2CC[C@H]1C2 [Example 624]
– | – | A (EC1.5<1 μM) | ≥ 150 | O=C(Nc1cccc(-c2ccccc2)c1)N1c2nc(-c3cccc(C(F)(F)F)c3)ccc2N2CC[C@H]1C2 [Example 625]
– | – | A (EC1.5<1 μM) | ≥ 150 | COC(=O)c1cccc(NC(=O)N2c3nc(-c4cccc(C(F)(F)F)c4)ccc3N3CC[C@H]2C3)c1 [Example 626]
– | – | B (EC1.5 1-25 μM) | ≥ 150 | O=C(NCCCn1ccnc1)N1c2nc(-c3cccc(C(F)(F)F)c3)ccc2N2CC[C@H]1C2 [Example 627]
– | – | B (EC1.5 1-25 μM) | ≥ 150 | O=C(Nc1ccc(N2CCCCC2)cc1)N1c2nc(-c3cccc(C(F)(F)F)c3)ccc2N2CC[C@H]1C2 [Example 628]
– | – | A (EC1.5<1 μM) | ≥ 150 | O=C(Nc1cccc(CN2CCOCC2)c1)N1c2nc(-c3cccc(C(F)(F)F)c3)ccc2N2CC[C@H]1C2 [Example 629]
– | – | A (EC1.5<1 μM) | ≥ 150 | O=C(Nc1cncc(F)c1)N1c2nc(-c3cccc(C(F)(F)F)c3)ccc2N2C[C@@H](O)[C@H]1C2 [Example 630]
– | – | B (EC1.5 1-25 μM) | ≥ 150 | O=C(Nc1cccnn1)N1c2nc(-c3cccc(C(F)(F)F)c3)ccc2N2C[C@@H](O)[C@H]1C2 [Example 631]
– | – | C (EC1.5>25 μM) | ≥ 150 | Cc1nccn1CCCNC(=O)N1c2nc(-c3cccc(C(F)(F)F)c3)ccc2N2CC[C@H]1C2 [Example 632]
– | – | B (EC1.5 1-25 μM) | ≥ 150 | O=C(NCCCc1ccncc1)N1c2nc(-c3cccc(C(F)(F)F)c3)ccc2N2CC[C@H]1C2 [Example 633]

Tryp AVG EC1.5 (μM) [1] | Emax (Trp peptide substrate) [%] | Tryp AVG EC1.5 (μM) [2] | Emax (Trp mass spectrometry assay) [%] | Structure (SMILES)
– | – | C (EC1.5>25 μM) | < 150 | CC(=O)O[C@H]1CN2C[C@H]1N(C(=O)Nc1ccccn1)c1nc(-c3cccc(C(F)(F)F)c3)ccc12 [Example 634]
– | – | A (EC1.5<1 μM) | ≥ 150 | CC(=O)N1CCC(c2cccc(NC(=O)N3c4nc(-c5cccc(C(F)(F)F)c5)ccc4N4CC[C@H]3C4)c2)C1 (stereo partly drawn) [Example 635]
– | – | A (EC1.5<1 μM) | ≥ 150 | CCC(=O)N1CCC(c2cccc(NC(=O)N3c4nc(-c5cccc(C(F)(F)F)c5)ccc4N4CC[C@H]3C4)c2)C1 (stereo partly drawn) [Example 636]
– | – | A (EC1.5<1 μM) | ≥ 150 | O=C(C1CC1)N1CCC(c2cccc(NC(=O)N3c4nc(-c5cccc(C(F)(F)F)c5)ccc4N4CC[C@H]3C4)c2)C1 (stereo partly drawn) [Example 637]
– | – | A (EC1.5<1 μM) | ≥ 150 | CC(C)(C)OC(=O)NCc1cnnn1-c1cccc(NC(=O)N2c3nc(-c4cccc(C(F)(F)F)c4)ccc3N3CC[C@H]2C3)c1 [Example 638]
– | – | A (EC1.5<1 μM) | ≥ 150 | NCCCCCC(=O)NCc1cn(-c2cccc(NC(=O)N3c4nc(-c5cccc(C(F)(F)F)c5)ccc4N4CC[C@H]3C4)c2)nn1 [Example 639]
– | – | A (EC1.5<1 μM) | ≥ 150 | NCc1cnnn1-c1cccc(NC(=O)N2c3nc(-c4cccc(C(F)(F)F)c4)ccc3N3CC[C@H]2C3)c1 [Example 640]
– | – | C (EC1.5>25 μM) | < 150 | O=C(Nc1ccc(Oc2ccccc2)cc1)N1c2nc(-c3cccc(C(F)(F)F)c3)ccc2N2CC[C@H]1C2 [Example 641]
– | – | A (EC1.5<1 μM) | ≥ 150 | CS(=O)(=O)Nc1cccc(NC(=O)N2c3nc(-c4cccc(C(F)(F)F)c4)ccc3N3CC[C@H]2C3)c1 [Example 642]
– | – | A (EC1.5<1 μM) | ≥ 150 | NS(=O)(=O)c1ccc(NC(=O)N2c3nc(-c4cccc(C(F)(F)F)c4)ccc3N3CC[C@H]2C3)cc1 [Example 643]
– | – | B (EC1.5 1-25 μM) | ≥ 150 | COc1cc(NC(=O)N2c3nc(-c4cccc(C(F)(F)F)c4)ccc3N3C[C@@H](O)[C@H]2C3)ncn1 [Example 644]
– | – | A (EC1.5<1 μM) | ≥ 150 | O=C(Nc1cnccn1)N1c2nc(-c3cccc(C(F)(F)F)c3)ccc2N2C[C@@H](O)[C@H]1C2 [Example 645]
– | – | A (EC1.5<1 μM) | ≥ 150 | O=C(Nc1nncs1)N1c2nc(-c3cccc(C(F)(F)F)c3)ccc2N2CC[C@H]1C2 [Example 646]
– | – | A (EC1.5<1 μM) | ≥ 150 | CCc1nnc(NC(=O)N2c3nc(-c4cccc(C(F)(F)F)c4)ccc3N3CC[C@H]2C3)s1 [Example 647]
– | – | A (EC1.5<1 μM) | ≥ 150 | O=C(Nc1nnc(-c2ccccc2)s1)N1c2nc(-c3cccc(C(F)(F)F)c3)ccc2N2CC[C@H]1C2 [Example 648]
– | – | B (EC1.5 1-25 μM) | ≥ 150 | CC(C)(C)c1nnc(NC(=O)N2c3nc(-c4cccc(C(F)(F)F)c4)ccc3N3CC[C@H]2C3)s1 [Example 649]
– | – | C (EC1.5>25 μM) | < 150 | O=C(Nc1nnc(C(F)(F)F)s1)N1c2nc(-c3cccc(C(F)(F)F)c3)ccc2N2CC[C@H]1C2 [Example 650]
– | – | A (EC1.5<1 μM) | ≥ 150 | O=C(Nc1nnc(-c2cccnc2)s1)N1c2nc(-c3cccc(C(F)(F)F)c3)ccc2N2CC[C@H]1C2 [Example 651]
– | – | A (EC1.5<1 μM) | ≥ 150 | O=C(Nc1cccc(Br)n1)N1c2nc(-c3cccc(C(F)(F)F)c3)ccc2N2CC[C@H]1C2 [Example 652]
– | – | A (EC1.5<1 μM) | ≥ 150 | O=C(Nc1cccc(-c2ccsc2)n1)N1c2nc(-c3cccc(C(F)(F)F)c3)ccc2N2CC[C@H]1C2 [Example 653]
– | – | A (EC1.5<1 μM) | ≥ 150 | O=C(Nc1cccc(-c2ccoc2)n1)N1c2nc(-c3cccc(C(F)(F)F)c3)ccc2N2CC[C@H]1C2 [Example 654]
– | – | A (EC1.5<1 μM) | ≥ 150 | O=C(Nc1cccc(-c2cccnc2)n1)N1c2nc(-c3cccc(C(F)(F)F)c3)ccc2N2CC[C@H]1C2 [Example 655]
